This is an account of results in patent publication US12139458B2, “(2,5-dioxopyrrolidin-1-yl)(phenyl)-acetamide derivatives and their use in the treatment of neurological diseases” (UNIWERSYTET JAGIELLONSKI, priority 2019, dated 2024).

Data set [1] can be described thus: Metabolic stability in human liver microsomes. Type of data set: in vitro ADME. On the procedure:
Metabolic stability. The metabolic stability of compound 6 was evaluated using human liver microsomes (HLMs). Internal clearance values CLint were calculated by monitoring changes in compound concentration in the presence of microsomes per unit of time, according to the procedure proposed by Obach R. S. (Obach, R. S. Drug Metab. Dispos. 1999, 27, 1350-1359).
Metabolic stability tests—methodology. Metabolic stability studies for compound 6 were performed using HLMs (Promega, Madison, WI, USA). For this purpose, 10 μL of compound 6 at a concentration of 1000 μM was diluted with 132 μL with tris-HCl buffer (100 mM, pH 7.4), followed by the addition of 8 μL of appropriate microsomes. The reaction mixture was preincubated at 37° C. for 5 minutes, followed by the addition of 50 μL of NADPH Regeneration System, supplied by Promega (Madison, WI, USA). After mixing, the whole mixture was incubated at 37° C. for 120 minutes. To complete the reaction, 200 μL of cold methanol was added to the tubes and centrifuged. The supernatant was subjected to UPLC/MS analysis, including fragmentation analysis. Four mixtures of 6 with HLMs were prepared to determine the internal clearance CLint. Each of these reactions was completed at a different time point, after 5, 15, 30 and 45 min, by the addition of cold methanol containing 50 μM internal standard. Then, according to literature guidelines (Obach, R. S. Drug Metab. Dispos. 1999, 27, 1350-1359), based on the plot of the relationship between the height of the peak from 6 and the height of the internal standard, the regression equation was determined and the reaction rate constant k was calculated. Then the constant k was substituted to equation (1).
The calculated t1/2 value was then substituted into equation (2): […]
(Liver microsomes are vesicles of endoplasmic reticulum, rich in cytochrome P450 enzymes.)

The subject of data set [2] is male white Swiss mice (CD-1). The data set can be described thus: Formalin test (analgesic activity). Particulars: Mus musculus, ip, i.p., mice. Type of data set: in vivo. On the procedure: The tests were carried out using male white Swiss mice (CD-1) weighing 18-25 g. All procedures were carried out in accordance with Polish and international guidelines on ethics of animal testing, after obtaining appropriate institutional approval. The study group consisted of 8-10 animals. The tested and reference substances were administered intraperitoneally 30 minutes before given test as suspension in 1% aqueous solution of Tween. All tests/models were carried out based on the procedures described in the specialist literature: the formalin test (Beirith, A.; Santos, A. R.; Calixto, J. B.; Rodrigues, A. L.; Creczynski-Pasa, T. B. Eur. J. Pharmacol. 1998, 345, 233-245), the model of capsaicin-induced pain (Mogilski, S.; Kubacka, M.; Redzicka, A.; Kazek, G.; Dudek, M.; Malinka, W.; Filipek, B. Pharmacol. Biochem. Behav. 2015, 133, 99-110), the model of oxaliplatin-induced neuropathic pain—von Frey test (Sałat, K.; Cios, A.; Wyska, E.; Satat, R.; Mogilski, S.; Filipek, B.; Wigȩkowski, K.; Malawska, B. Pharmacol. Biochem. Behav. 2014, 122, 173-181).
The pain was induced by the subplantar injection of 20 μL of 2.5% formalin solution into the mice right hind paw. The animals were placed in separate, transparent observation chambers for a period of 30 minutes. The measured value was the total licking and biting time of the paw to which the formalin solution was injected. The nociceptive reaction time was calculated for the first 5 minutes after formalin injection (first phase of the test—acute pain) and in the 15-20, 20-25 and 25-30 minutes time intervals after its administration (second phase of the test—inflammatory pain). The observed inhibition of nociceptive reaction—reduction of paw licking and biting time, was interpreted as the analgesic effect of the compound tested. Based on the results obtained, the ED50 dose was calculated (dose that reduces the nociceptive reaction time by 50%). […] Compound 6 was administered at doses of 10 mg/kg, 20 mg/kg and 30 mg/kg.

Data set [3] has as its system Ca2+ channel type L (verapamil binding site). In words: Ca2+ channel type L (verapamil binding site) affinity study. Particulars: 100 μM, rat cerebral cortex. From the text:
A unique feature of the compound 6 representing compounds of formula (II) according to the invention is the inhibition of calcium currents by blocking the transient receptor potential vanilloid type 1 (TRPV1). This effect has not been disclosed for known AEDs. TRPV1 receptor antagonism may determine the antinociceptive effect of the compounds disclosed herein. The role of the TRPV1 receptor in conduction of pain stimuli has been well documented in specialist literature (Szallasi, A.; Cortright, D. N.; Blum, C. A.; Eid, S. R. Nat. Rev. Drug. Discov. 2007, 6, 357-372). The compounds according to the invention are characterized by a complex mechanism of action, which is not described for known anticonvulsants. It should be emphasized, however, that further in vitro studies may reveal further molecular targets responsible for the pharmacological action of substances being the subject of current patent claim. The results of binding studies (sodium channel, calcium channel) and functional tests (TRPV1 receptor) for compound 6 are shown in Table 3.

Structures are written as SMILES. Read-outs that look alike come from different tables or passages of the source.

Usually ED50 stands for the dose at which the effect has come halfway, by size or by number of responders.

In the case of `O=C(C(c1ccccc1)N1C(=O)CCC1=O)N1CCN(c2cccc(C(F)(F)F)c2)CC1` (racemic) [Compound 6, 1-(2-Oxo-1-phenyl-2-(4-(3-(trifluoromethyl)phenyl)piperazin-1-yl)ethyl)pyrrolidine-2,5-dione], the “metabolites found by UPLC after incubation with HLMs” value in data set [1] (120 min incubation, UPLC/MS) is on record as “three metabolites M1-M3”. Also, the CLint scaled at 50 µM in data set [1] (human, human liver microsomes, pH 7.4, incubation with HLMs, read-out: internal clearance CLint) is 0.348 L/h/kg. In addition, the “internal clearance CLint” value in data set [1] (incubation with HLMs) was found to be 0.336 L/h/kg. The ED50 in data set [2] (phase I (acute pain, 0-5 min), read-out: ED50 in the first phase of the formalin test) was 28.5 mg/kg; in data set [2] (phase II (inflammatory pain, 15-30 min), read-out: ED50 in the second phase of the formalin test) it was 12.4 mg/kg. The “Inhibition of specific control binding, Ca2+ channel type L (verapamil binding site)” value in data set [3] was 58.2 (100) %.
